Assays:
[1] = Glycated hemoglobin (HbA1c) in db/db mice; type: in vivo, male db/db mice; conditions: 0.5 mg/ml in drinking water
Procedure: The effect of compound administration on glycated hemoglobin levels was examined using a mouse model of diabetes as follows. Twenty male db/db mice (Harlan) received drinking water containing either vehicle (100 μM histidine) or compound A (0.5 mg/ml) for a period of 8 weeks. Prior to study initiation and at weeks 4 and 8 following treatment, blood samples were collected from the tail vein and HbA1c levels were measured using an HbA1cNOW kit (Metrika Inc., Sunnyvale Calif.).

[2] = Body weight gain, abdominal fat pad and organ weight in diet-induced obesity model; type: in vivo, male C57BL/6J mice; conditions: C57BL/6J mice, 75 mg/kg/day oral gavage, 28 days; for abdominal fat pad weight on high-fat diet: FIG. 9B; for organ weights of kidney, liver, and heart between experimental groups: FIG. 9C; for body weight gain on high-fat diet vs untreated high-fat diet: p<0.05, FIG. 9A
From the text: C57B1/6J mice fed a high-fat diet develop severe obesity, hyperglycemia, and hyperinsulinemia, and are a model of diet-induced obesity, Type 2 diabetes, and impaired glucose tolerance. Forty male C57BL/6J mice obtained from The Jackson Laboratory (Bar Harbor Me.) were divided into the following experimental groups: Group 1: vehicle control animals fed standard mouse chow (n=10); Group 2: vehicle control animals fed high-fat mouse chow (45% fat from Research Diets) (n=10); Group 3: animals fed high-fat mouse chow and administered 75 mg/kg/day compound E by oral gavage (n=10); Group 4: animals fed high-fat mouse chow and administered 75 mg/kg/day compound A by oral gavage (n=10). The feeding regimen was continued for 28 days with weekly measurement of body weight. Animals were then sacrificed and their organs and fat pads were harvested and weighed.

[3] = Serum triglyceride levels in db/db mice; type: in vivo, male db/db mice; conditions: 0.5 mg/ml in drinking water, 8 weeks
From the text: The effect of compound administration on triglyceride levels was examined using a mouse model of diabetes as follows: Twenty male db/db mice (Harlan, Indianapolis, Ind.), which carry a homozygous loss-of-function mutation in the leptin receptor, were used for this study. Triglycerdide levels are typically elevated 1.5-2 times in db/db mice compared to that in normal mice. (Nishina et al (1994) Metabolism 43:549-553.) Triglyceride levels in db/db mice progressively increase with age. (Tuman and Doisy (1977) Diabetologia 13:7-11.) Mice received drinking water containing either vehicle (100 μM histidine) or compound A (0.5 mg/ml in 100 μM histidine) for a period of 8 weeks. At the termination of the study, animals were fasted overnight and blood samples were taken from the caudal vena cava under general anesthesia and placed in serum separator tubes. Blood samples were sent to Quality Clinical Labs (Mountain View, Calif.) for analysis.

GluT-1 = GluT-1 protein levels in H9c2 cells (Western blot); type: cell-based, rat; conditions: H9c2 cells, 5, 10, and 20 μM, 16 hours; FIG. 1B
Procedure: Human SSC-25 (squamous cell carcinoma) or rat H9c2 (ventricular cardiomyocyte) cells were grown to confluence in 100 mm culture dishes at 37° C., 10% CO2 in DMEM with 10% fetal calf serum. Cells were then washed twice with PBS and incubated with vehicle control, compound D (10 and 25 μM), or compound C (5, 10, and 20 μM) for 16 hours. Plates were placed on ice, culture supernatant was removed, and lysis buffer-1 (LB-1: 10 mM Tris pH 7.4, 1 mM EDTA, 150 mM sodium chloride, 0.5% IGEPAL) was added. Cell lysates were harvested by scraping, incubated for 15 minutes on ice, and then centrifuged at 3000×g for 5 minutes at 4° C. The supernatant, which represents the cytosolic fraction, was collected and cytosolic proteins were separated under reducing conditions using SDS-polyacrylamide gel electrophoresis (SDS-PAGE) with equal amounts of protein loaded per lane.
SDS-PAGE was conducted at 150 V for 2 hours, after which the proteins were transferred to a PVDF membrane at 400 mA for 1.5 hours at 4° C. The membrane was incubated in blocking buffer for 2 hours or overnight and washed once with T-TBS prior to addition of anti-GluT-1 antibody (Alpha Diagnostics) diluted to working concentration in blocking buffer. […]

[4] = Intra-Peritoneal Glucose Tolerance Test in diet-induced Type 2 diabetes model; type: in vivo, male C57BL/6J mice; conditions: 75 mg/kg/day oral gavage, 14 days
Procedure: C57B1/6J mice fed a high-fat diet develop severe obesity, hyperglycemia, and hyperinsulinemia, and are a model of diet-induced obesity, Type 2 diabetes, and impaired glucose tolerance. Forty male C57BL/6J mice obtained from The Jackson Laboratory (Bar Harbor Me.) were divided into the following experimental groups: Group 1: vehicle control animals fed standard mouse chow (n=10); Group 2: animals fed standard mouse chow and administered 75 mg/kg/day compound E by oral gavage (n=10); Group 3: vehicle control animals fed high-fat mouse chow (45% fat from Research Diets) (n=10); Group 4: animals fed high-fat mouse chow and administered 75 mg/kg/day compound E by oral gavage (n=10). The feeding regimen was continued for 14 days with daily measurement of body weight and food consumption. Animals were then fasted for 4 hours prior to an Intra-Peritoneal Glucose Tolerance Test (IPGTT) using a glucose load of 2 g glucose/kg body weight. Blood samples were taken for determination of blood glucose levels at 0, 15, 30, 60, and 90 minutes following glucose administration.

HIF-1α = HIF-1α stabilization in cells, TRANSAM HIF-1 ELISA of nuclear fractions; type: cell-based, Human; conditions: epithelial cells (293A) and hepatocellular carcinoma (Hep3B); FIG. 12B
Procedure: Stabilization of HIFα using compounds and methods of the present invention was examined as follows. Human cells derived from adenovirus-transformed fetal kidney epithelium (293A), cervical epithelial adenocarcinoma (HeLa), hepatocellular carcinoma (Hep3B), squamous carcinoma (SSC-25), and lung fibroblast (HLF) (see, e.g., American Type Culture Collection, Manassas Va.; and Qbiogene, Carlsbad Calif.) were separately seeded into 100 mm culture dishes and grown at 37° C., 20% O2, 10% CO2 in media as follows: HeLa cells in Dulbecco's Modification of Eagle's Medium (DMEM), 2% fetal bovine serum (FBS); HLF cells in DMEM, 10%FBS; 293A cells in DMEM, 5%FBS; and Hep3B cells in Minimal Essential Medium (MEM), Earle's BSS (Mediatech Inc., Herndon Va.), 2 mM L-glutamine, 0.1 mM non-essential amino acids, 1 mM sodium pyruvate, 10% FBS. When cell layers reached confluence, the media was replaced with OPTI-MEM media (Invitrogen Life Technologies, Carlsbad Calif.) and cell layers were incubated for approximately 24 hours in 20% O2, 10% CO2 at 37° C. Compound of the invention (one of compounds B, F, G, and H) or DMSO (0.5 to 1%) was then added to existing medium, and incubation was continued overnight.
Alternatively, nuclear fractions were prepared using a Nuclear Extract kit (Active Motif, Carlsbad Calif.) and were analyzed for HIF-1α using a TRANSAM HIF-1 ELISA kit (Active Motif) according to the manufacturer's instructions.

SMILES | abdominal fat pad weight on high-fat diet [2] | organ weights of kidney, liver, and heart between experimental groups [2] | body weight gain on high-fat diet vs untreated high-fat diet [2] | HIFα stabilization and accumulation (ELISA) compared to vehicle-treated control cells (HIF-1α) | other results
O=C(O)CNC(=O)c1nc2cc(Cl)ccc2cc1O [compound A, [(7-Chloro-3-hydroxy-quinoline-2-carbonyl)-amino]-acetic acid] | essentially the same fat pad weight as animals fed a normal diet | not different | significantly less weight gain | – | HbA1c levels at week 8 vs non-treated [1]: significantly lower; HbA1c levels at week 8 ([1]; 8 weeks, control rose from about 7.5% to about 10%, FIG. 6): about 7.5%; HbA1c levels over time ([1]; weeks 0 to 8): did not increase over time; triglyceride level vs controls [3]: significantly lower than controls; triglyceride level ([3]; fasted overnight, control approximately 120 mg/dL, FIG. 11): approximately 85 mg/dL
O=C(O)CNC(=O)c1ncc2cc(Oc3ccccc3)ccc2c1O [compound C, [(4-Hydroxy-7-phenoxy-isoquinoline-3-carbonyl)-amino]-acetic acid] | – | – | – | – | protein levels of GluT-1 (GluT-1): increased
COc1ccc2c(O)c(C(=O)NCC(=O)O)nc(Cl)c2c1 [compound E, [(1-Chloro-4-hydroxy-7-methoxy-isoquinoline-3-carbonyl)-amino]-acetic acid] | essentially the same fat pad weight as animals fed a normal diet | not different | significantly less weight gain | – | glucose clearance rate in IPGTT, treated high-fat diet mice (RxHF) vs mice on standard chow ([4]; 2 g glucose/kg, FIG. 5A): substantially the same; glucose AUC in IPGTT, treated mice (RxChow, RxHF) vs standard chow without compound (VeChow) ([4]; FIG. 5B): no statistical difference; glucose AUC in IPGTT, high-fat chow without compound (VeHF) vs high-fat chow treated (RxHF) ([4]; t-test, p<0.05, FIG. 5B): statistically significant difference
CC(C)Oc1ccc2nc(C(=O)NCC(=O)O)c(O)cc2c1 [compound F, [(3-Hydroxy-6-isopropoxy-quinoline-2-carbonyl)-amino]-acetic acid] | – | – | – | stabilization and accumulation of HIFα | –
O=C(O)CNC(=O)c1ncccc1O [compound G, [(3-Hydroxy-pyridine-2-carbonyl)-amino]-acetic acid] | – | – | – | stabilization and accumulation of HIFα | –
COC(=O)CNC(=O)c1nc(Cl)c2cc(OCc3ccccc3)ccc2c1O [compound H, [(7-Benzyloxy-1-chloro-4-hydroxy-isoquinoline-3-carbonyl)-amino]-acetic acid methyl ester] | – | – | – | stabilization and accumulation of HIFα | –

Source: US8124582B2, “Treatment of diabetes” (FibroGen, Inc., priority 2002, dated 2012)
